Reference: publication PMC12005787, “Synthetic Lethality of SHP2 and XIAP Suppresses Proliferation and Metastasis in KRAS‐mutant Nonsmall Cell Lung Cancer” (Advanced Science, 2025)
Where two headings read alike, the source gives them in different places. Values belong to the compound of their own block, whether it stands above or below them.

Tests used:
SW1417 cells = experiment: Cell viability assay (CCK-8); type: cell-based; conditions: Homo sapiens
Protocol: (§1) supplies are listed in Supplementary Table S5. […]
(§2) KRAS-mutant and wild-type cells are listed in Supplementary Table S7.
(§3) For the adherent cell viability assay, cells in the logarithmic growth phase were seeded in 96-well culture plates at a density of 5×103 well-1 and incubated overnight. Diluted compounds or DMSO were added, or specific treatments were incubated at 37 °C and 5% CO2 for 24 h or 48 h. Cell viability was determined using CCK-8 or CellLightTM Cell Viability Assay Kit, according to the manufacturer's protocol. The luminescence signals of the treated samples were normalized to those of the DMSO group. […]

HCC44 cells = experiment: Cell viability assay (CCK-8); type: cell-based; conditions: Homo sapiens
Protocol: as §1, §2, §3

NCI-H1975 cells = experiment: Cell viability assay (CCK-8); type: cell-based; conditions: Homo sapiens, NCI-H1975, 24 h, NCI-H1975, RAS-wild type, EGFR L858R/T790M
Protocol: as §1, §2, §3

NCI-H1155 cells = experiment: Cell viability assay (CCK-8); type: cell-based; conditions: Homo sapiens
Protocol: as §1, §2, §3

[1] = tested on: cancer cell lines that contain different RAS mutations; experiment: Average sensitivity of cancer cell line panel by RAS mutation status; type: cell-based
Protocol: Inhibitory effects of embelin on KRAS-mutant and wild-type cells are listed in Supplementary Table S7.
as §3

[2] = tested on: SHP2 and ERK phosphorylation in KRAS, HRAS and NRAS‐mutant cells; experiment: SHP2 and ERK phosphorylation in RAS-mutant cells (western blotting); type: cell-based; conditions: KRAS G12C, G12S, G13D
Protocol: Transwell, and the subsequent experiments were performed as described in Cell migration […]
After given treatment, cells were lysed by ice bath with radio-immunoprecipitation assay (RIPA) buffer containing 1% phenylmethylsulphonyl fluoride (PMSF), and the supernatant was collected by centrifugation, and the protein concentration was subsequently determined using a BCA Protein Assay Kit. Depending on the molecular weight of the proteins, different concentrations of sodium dodecyl-sulfate polyacrylamide gel electrophoresis (SDS-PAGE) separator gels were prepared for protein electrophoresis. Equal amounts of proteins were sampled and subjected to SDS-PAGE gel electrophoresis; at the end of electrophoresis, the proteins were transferred to nitrocellulose (NC) membranes. The NC membrane was blocked with 5% skim milk and covered with a specific primary antibody overnight at 4 °C, in which the primary antibody was diluted at a ratio of 1:500–1:5000. The NC membrane was […]

NCI-H358 cells = experiment: Cell viability assay (CCK-8); type: cell-based; conditions: Homo sapiens
Protocol: as §2, §3

HCT116 cells = experiment: Cell viability assay (CCK-8); type: cell-based; conditions: Homo sapiens, HCT-116
Protocol: as §2, §3

NCI-H838 cells = experiment: Cell viability assay (CCK-8); type: cell-based; conditions: Homo sapiens
Protocol: as §2, §3

NCI-H1915 cells = experiment: Cell viability assay (CCK-8); type: cell-based
Protocol: as §2, §3

NCI-H1944 cells = experiment: Cell viability assay (CCK-8); type: cell-based; conditions: Homo sapiens
Protocol: as §2, §3

NCI-H1755 cells = experiment: Cell viability assay (CCK-8); type: cell-based; conditions: Homo sapiens
Protocol: as §2, §3

SW1116 cells = experiment: Cell viability assay (CCK-8); type: cell-based; conditions: Homo sapiens, SW 1116
Protocol: as §2, §3

SNU-C2A cells = experiment: Cell viability assay (CCK-8); type: cell-based
Protocol: as §2, §3

NCI-H1693 cells = experiment: Cell viability assay (CCK-8); type: cell-based; conditions: Homo sapiens
Protocol: as §2, §3

A549 and NCI‐H2122 cells = experiment: Cell proliferation in monolayer culture (CCK-8); type: cell-based, human
Protocol: as §3
Figure S7. Targeting SHP2 and XIAP produces a synthetic lethal effect. (A) Effects of NSC-87877 on cell viability of A549 and NCI-H2122 cells after 24 and 48 h were determined using the CCK-8. Bars, ± SEM. The curves were plotted using a variable slope (four-parameter) non-linear fit. (B, E, F, and I) Effects of Na3VO4 (B), birinapant (E), BV-6 (F), and LCL161 (I) on cell viability of human NCI-H2122 cells at 48 h were determined using the CCK-8. *p < 0.05, **p < 0.01 and ***p < 0.001 compared to control group (unpaired two-tailed Student’s t-test).(C, G) Effects of SHP099 (C) and GDC-0152 (G) on cell viability after 24 and 48 h were determined using the CCK-8. Bars, ± SEM. The curves were plotted using a variable slope (four-parameter) non-linear fit.(D, H) Effects of SHP099 (D) and GDC-0152 (H) on cell viability were determined after 48 h using intracellular ATP chemiluminescence. **p < 0.01 and ***p < 0.001 compared to control group (unpaired two-tailed Student’s t-test).(J) Effects of SHP099 and GDC-0152 separately and in combination, and the effect of embelin for 24 h on the cell viability were assessed using intracellular ATP […]
tailed Student’s t-test).(K) Effects of SHP099 and GDC-0152 separately and in combination with […] on the cell viability of human KRAS-WT and -mutant cells were assessed using a colony formation assay. (L, M) A549 and NCI-H2122 cells were instantaneously transfected with siPTPN11 and siXIAP separately and together for 24 h under

IC50 (SW1417 cells; SW1417, 48 h, read-out: IC50 at 48 h): 14.9 ± 0.34 µM | IC50 (SW1417 cells; SW1417, RAS-wild type, 24 h, read-out: IC50 at 24 h): 65.39 ± 0.36 µM | IC50 (HCC44 cells; HCC44, 48 h, read-out: IC50 at 48 h): 6.52 ± 0.4 µM | IC50 (HCC44 cells; HCC44, KRAS G12C, 24 h, read-out: IC50 at 24 h): 27.3 ± 0.44 µM | IC50 (NCI-H1975 cells): 7.4 ± 0.83 µM | IC50 (NCI-H1155 cells; NCI-H1155, 48 h, read-out: IC50 at 48 h): 7.07 ± 0.45 µM | IC50 (NCI-H1155 cells; NCI-H1155, KRAS Q61H, 24 h, read-out: IC50 at 24 h): 16.1 ± 0.36 µM | IC50 ([1]; HRAS mutants): 44 µM | IC50 ([1]; NRAS mutant strain): 19.6 µM | IC50 ([1]; RAS wild‐type cell lines): 30.8 µM | IC50 ([1]; cell lines with KRAS mutations): 16.9 µM | IC50 (NCI-H358 cells; NCI-H358, 48 h, read-out: IC50 at 48 h): 9.2 ± 0.3 µM | IC50 (NCI-H358 cells; NCI-H358, KRAS G12C, 24 h, read-out: IC50 at 24 h): 12.2 ± 0.4 µM | IC50 (HCT116 cells; HCT116, 48 h, read-out: IC50 at 48 h): 9.6 ± 0.4 µM | IC50 (HCT116 cells; HCT116, KRAS G13D, 24 h, read-out: IC50 at 24 h): 18.2 ± 0.9 µM | IC50 (NCI-H838 cells; NCI-H838, 48 h, read-out: IC50 at 48 h): 10.5 ± 0.44 µM | IC50 (NCI-H838 cells; NCI-H838, RAS-wild type, 24 h, read-out: IC50 at 24 h): 39.79 ± 0.27 µM | IC50 (NCI-H1915 cells; NCI-H1915, 48 h, read-out: IC50 at 48 h): 11.4 ± 0.39 µM | IC50 (NCI-H1915 cells; NCI-H1915, HRAS, 24 h, read-out: IC50 at 24 h): 60.6 ± 0.41 µM | IC50 (NCI-H1944 cells; NCI-H1944, 48 h, read-out: IC50 at 48 h): 21.6 ± 0.9 µM | IC50 (NCI-H1944 cells; NCI-H1944, KRAS G13D, 24 h, read-out: IC50 at 24 h): 31 ± 0.2 µM | IC50 (NCI-H1755 cells; NCI-H1755, 48 h, read-out: IC50 at 48 h): 14.2 ± 0.27 µM | IC50 (NCI-H1755 cells; NCI-H1755, RAS-wild type, 24 h, read-out: IC50 at 24 h): 49.4 ± 0.32 µM | IC50 (SW1116 cells; SW1116, 48 h, read-out: IC50 at 48 h): 7 ± 0.35 µM | IC50 (SW1116 cells; SW1116, KRAS G12A, 24 h, read-out: IC50 at 24 h): 19.5 ± 0.29 µM | IC50 (SNU-C2A cells; 48 h, read-out: IC50 at 48 h): 8.73 ± 0.43 µM | IC50 (SNU-C2A cells; KRAS G12D, 24 h, read-out: IC50 at 24 h): 22.4 ± 0.5 µM | IC50 (NCI-H1693 cells; NCI-H1693, 48 h, read-out: IC50 at 48 h): 16.2 ± 0.37 µM | IC50 (NCI-H1693 cells; NCI-H1693, RAS-wild type, 24 h, read-out: IC50 at 24 h): 42.57 ± 0.34 µM
SMILES: CCCCCCCCCCCC1=C(O)C(=O)C=C(O)C1=O [Embelin]
effect on SHP2 phosphorylation [2]: inhibited SHP2 phosphorylation | effect on downstream ERK phosphorylation [2]: significantly reduced

SMILES: CC1(N)CCN(c2cnc(-c3cccc(Cl)c3Cl)c(N)n2)CC1 [SHP099]
effect on cell proliferation in monolayer cell culture mode (A549 and NCI‐H2122 cells): almost no effect
